Activity calls are given as the source filed them.
Legend:
Format in all cases: functional
[1] = tested on: CCRF-CEM; assay: Cytotoxicity against human CCRF-CEM cells
[2] = tested on: HL-60; assay: Cytotoxicity against human HL60 cells
[3] = tested on: K562; assay: Cytotoxicity against human K562 cells
[4] = tested on: MOLT-4; assay: Cytotoxicity against human MOLT4 cells
[5] = tested on: RPMI-8226; assay: Cytotoxicity against human RPMI8226 cells
[6] = tested on: SR; assay: Cytotoxicity against human SR cells
[7] = tested on: COLO 205; assay: Cytotoxicity against human COLO205 cells
[8] = tested on: HCC 2998; assay: Cytotoxicity against human HCC2998 cells
[9] = tested on: HCT-116; assay: Cytotoxicity against human HCT116 cells
[10] = tested on: HCT-15; assay: Cytotoxicity against human HCT15 cells
[11] = tested on: HT-29; assay: Cytotoxicity against human HT29 cells
[12] = tested on: KM12; assay: Cytotoxicity against human KM12 cells
[13] = tested on: SW-620; assay: Cytotoxicity against human SW620 cells
[14] = tested on: LOX IMVI; assay: Cytotoxicity against human LOXIMVI cells
[15] = tested on: Malme-3M; assay: Cytotoxicity against human MALME-3M cells
[16] = tested on: M14; assay: Cytotoxicity against human M14 cells

Measured: Activity

C#C/C=C\[C@H](O)CCCCCCCCCCC/C=C\CCCCCCCCCCC[C@H](O)C#CC#CC#CCO
active: all assays above

C#CC(O)/C=C/CCCCCCCCC/C=C\C#CCCCCCCCCCC#CC#CC#CCO (configuration not stated)
active: all assays above

C#C[C@H](O)/C=C/CCCCCCCC/C=C\CCCCCCCC[C@H](O)C#CC#CC#CCO
active: all assays above

C#C[C@H](O)/C=C/CCCCCCCCC/C=C\C#CCCCCCCCC[C@H](O)C#CC#CC#CCO
active: all assays above

C#C[C@H](O)/C=C/CCCCCCCCC/C=C\C#CCCCCCC[C@H](O)C#CC#CC#CCO
active: all assays above

C#C[C@H](O)/C=C/CCCCCCCCCC/C=C\CCCCCCCC[C@H](O)C#CC#CC#CCO
active: all assays above

C#C[C@H](O)/C=C/CCCCCCCCCCCC/C=C\CCCCCCCCCCCCCC[C@H](O)C#CC#CC#CCO
active: all assays above

— ChEMBL document CHEMBL1158270, “Triangulynes A-H and trangulynic acid, new cytotxic polyacetylenes from the marine sponge Pellina triangulata” (1996)
